The target in this assay is human FAAH (Fatty Acid Amide Hydrolase) (Homo sapiens (Human), UniProt O00519). Nature of the assay: FAAH inhibition, human FAAH CHO whole cell format. In kind it is cell-based. From the text: To assist in assay development stable cell lines for human, murine and rat full length FAAH were developed. […] The full length FAAH was subcloned into the mammalian expression vector, pcDEF.neo, using XbaI and EcoRI restriction sites and used for stable cell line generation.
The full length murine FAAH was subcloned into the mammalian expression vector, pcDEFneo using either EcoRI (murine) or KpnI and EcoRI (rat) restriction sites. Chinese hamster ovary cells (CHO) were transfected following manufacturers protocol (AMAXA). Forty eight hours post transfection, cells were trypsinized and transferred to 96 well plates in Iscove's DMEM media supplemented with 2 mM Glutamine, 10% fetal calf serum, 1 mg/ml geneticin and HT Supplement (0.1 mM sodium hypoxanthine, 0.016 mM thymidine) in order to isolate single clones. […] Following removal of tissue culture media cells were dislodged following addition of Cellstripper (Mediatech, Inc. Manassas, Va.) and transferred to 96 well black clear bottom assay plate, centrifuged at 1,000 rpm for 3 mins and media removed and replaced with assay buffer (50 mM Tris pH8.0, 1 mM EDTA, 0.1% fatty acid free BSA). The reaction was initiated by addition of fluorescent substrate, AMC Arachidonoyl Amide (Cayman Chemical, Ann Arbor, Mich.) to 1 μM and reaction allowed to proceed for 2 hours at room temperature. Release of fluorescence was monitored in a CytoFluor Multiplate Reader.
Assays are performed on either cell lysate or microsome fractions prepared as described or in whole cell format employing either the fluorescent substrate AAMCA (Cayman chemical, Ann Arbor, Mich.,) or ^3H-anandamide ([ETHANOLAMINE-1-3H] American Radiolabeled Chemicals; 1 mCi/ml). […] AAMCA substrate was used to achieve a final concentration of 1 μM and reaction allowed to proceed at room temperature for 1-3 hours. […] Whole cell assay is conducted with cells harvested after rinsing tissue culture flasks three times with Ca^++Mg^++ free PBS, incubating for 10 min in Enzyme free dissociation media and centrifuging for 5 minutes at 1,000 rpm in table top centrifuge. Cells are resuspended in assay buffer at desired cell number in (4×10^4 cells/assay in 96-well format; 1×10^4 cells/assay in 384-well format) and assayed as described.

The text below walks through data of patent publication US9193697B2, “Oxazole derivatives useful as modulators of FAAH” (MERCK SHARP & DOHME CORP., priority 2010, dated 2015).

For orientation: IC50 means the concentration that inhibits the measured activity by half. Lower therefore signals greater potency in that assay.

Chain of human FAAH (Fatty Acid Amide Hydrolase) (O00519 whole entry): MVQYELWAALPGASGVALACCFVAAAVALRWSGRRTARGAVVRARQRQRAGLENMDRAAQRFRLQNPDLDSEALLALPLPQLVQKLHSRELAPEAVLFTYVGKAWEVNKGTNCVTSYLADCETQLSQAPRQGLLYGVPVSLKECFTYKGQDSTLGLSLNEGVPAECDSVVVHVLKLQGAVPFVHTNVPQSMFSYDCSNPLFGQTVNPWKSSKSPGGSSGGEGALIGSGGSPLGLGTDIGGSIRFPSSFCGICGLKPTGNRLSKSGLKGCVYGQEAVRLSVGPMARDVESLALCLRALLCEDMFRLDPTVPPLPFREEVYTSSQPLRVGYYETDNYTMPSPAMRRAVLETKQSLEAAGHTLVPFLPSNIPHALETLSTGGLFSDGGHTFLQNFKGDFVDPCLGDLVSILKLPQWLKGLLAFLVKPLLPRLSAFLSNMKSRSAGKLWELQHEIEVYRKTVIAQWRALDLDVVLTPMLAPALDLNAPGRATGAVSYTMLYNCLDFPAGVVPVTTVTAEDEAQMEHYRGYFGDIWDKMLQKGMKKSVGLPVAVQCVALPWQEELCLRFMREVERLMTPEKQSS

In the case of `Clc1ccc(Sc2oc(C3CCOCC3)nc2-c2cnc3n2CCC3)cc1` [Example B5.25, 3-{5-[(4-chlorophenyl)sulfanyl]-2-(tetrahydro-2H-pyran-4-yl)-1,3-oxazol-4-yl}-6,7-dihydro-5H-pyrrolo[1,2-a]imidazole], the IC50 is 205 nM. That is a sub-micromolar value.

The molecule `Clc1ccc(Sc2oc(C3CCOCC3)nc2-c2ccc3nncn3c2)cc1` [Example B5.23, 6-{5-[(4-chlorophenyl)sulfanyl]-2-(tetrahydro-2H-pyran-4-yl)-1,3-oxazol-4-yl}[1,2,4]triazolo[4,3-a]pyridine] gave an IC50 of 774 nM. This IC50 lies about 3.8-fold higher than the previous one.

For `O=C(OCc1ccccc1)N1CCC(c2nc(C3CCOCC3)oc2Sc2ccc(Cl)cn2)CC1` [Example A7.35, benzyl 4-{5-[(5-chloropyridin-2-yl)sulfanyl]-2-(tetrahydro-2H-pyran-4-yl)-1,3-oxazol-4-yl}piperidine-1-carboxylate], the concentration for half-maximal inhibition (IC50) was at least 10000 nM.

With `CC(C)(O)c1ccc(-c2nc(C3CCOCC3)oc2Sc2ccc(F)cn2)cn1` [Example A7.5, 2-(5-{5-[(5-fluoropyridin-2-yl)sulfanyl]-2-(tetrahydro-2H-pyran-4-yl)-1,3-oxazol-4-yl}pyridin-2-yl)propan-2-ol], half-maximal inhibition (IC50) required 4250 nM. That is a single-digit micromolar value.

Turning to `COC(=O)[C@H]1CC[C@H](c2nc(-c3ccc(C(C)(C)O)nc3)c(Sc3ccc(Cl)cc3)o2)CC1` [Example B5.33, methyl trans-4-{5-[(4-chlorophenyl)sulfanyl]-4-[6-(2-hydroxypropan-2-yl)pyridin-3-yl]-1,3-oxazol-2-yl}cyclohexanecarboxylate], the IC50 was found to be 9.5 nM.

Consider `CC(=O)N1CCC(c2nc(C3CCOCC3)oc2Sc2ccc(Cl)cn2)CC1` [Example A7.33, 1-(4-{5-[(5-chloropyridin-2-yl)sulfanyl]-2-(tetrahydro-2H-pyran-4-yl)-1,3-oxazol-4-yl}piperidin-1-yl)ethanone], for which inhibition was half-maximal at 1810 nM (IC50).

`CC(C)(O)c1ccc(-c2nc(C3CCOCC3)oc2Sc2cccc(Cl)c2)cn1` [Example A7.9, 2-(5-{5-[(3-chlorophenyl)sulfanyl]-2-(tetrahydro-2H-pyran-4-yl)-1,3-oxazol-4-yl}pyridin-2-yl)propan-2-ol] registered a concentration for half-maximal inhibition (IC50) of at least 10000 nM.

Consider `CC(C)(O)c1ccc(-c2nc(C3CCOCC3)oc2Sc2ccc(Cl)cn2)cn1` [Example A7.1, 2-(5-{5-[(5-chloropyridin-2-yl)sulfanyl]-2-(tetrahydro-2H-pyran-4-yl)-1,3-oxazol-4-yl}pyridin-2-yl)propan-2-ol], for which the IC50 came out at 314 nM.

With `COc1ccc(OC(=O)N2CCC(c3nc(C4CCOCC4)oc3Sc3ccc(Cl)cn3)CC2)cc1` [Example A7.39, 4-methoxyphenyl 4-{5-[(5-chloropyridin-2-yl)sulfanyl]-2-(tetrahydro-2H-pyran-4-yl)-1,3-oxazol-4-yl}piperidine-1-carboxylate], the IC50 was 2810 nM.

Regarding `Cc1nnc(-c2cccc(-c3nc(C4CCOCC4)oc3Sc3ccc(Cl)cc3)c2)o1` [Example B5.29, 2-(3-{5-[(4-chlorophenyl)sulfanyl]-2-(tetrahydro-2H-pyran-4-yl)-1,3-oxazol-4-yl}phenyl)-5-methyl-1,3,4-oxadiazole], the IC50 was at least 10000 nM.

In turn, `CN1CCN(c2ccc(-c3nc(C4CCOCC4)oc3Sc3ccc(Cl)cc3)cn2)CC1` [Example B5.27, 1-(5-{5-[(4-chlorophenyl)sulfanyl]-2-(tetrahydro-2H-pyran-4-yl)-1,3-oxazol-4-yl}pyridin-2-yl)-4-methylpiperazine] gave an IC50 of 141 nM.

On to `C[N+]1(C)CCN(c2ccc(-c3nc(C4CCOCC4)oc3Sc3ccc(Cl)cc3)cn2)CC1` [Example B5.14, 4-(5-{5-[(4-chlorophenyl)sulfanyl]-2-(tetrahydro-2H-pyran-4-yl)-1,3-oxazol-4-yl}pyridin-2-yl)-1,1-dimethylpiperazin-1-ium], for which the IC50 is at least 10000 nM.

With `CC(C)(O)c1ccc(-c2nc(C3CCOCC3)oc2Sc2ccccc2Cl)cn1` [Example A7.10, 2-(5-{5-[(2-chlorophenyl)sulfanyl]-2-(tetrahydro-2H-pyran-4-yl)-1,3-oxazol-4-yl}pyridin-2-yl)propan-2-ol], the IC50 is at least 10000 nM.

`CN(C(=O)c1ccc(-c2nc(C3CCOCC3)oc2Sc2ccc(Cl)cc2)cc1)C1CCOC1` (stereo not shown) [Example B5.26, 4-{5-[(4-chlorophenyl)sulfanyl]-2-(tetrahydro-2H-pyran-4-yl)-1,3-oxazol-4-yl}-N-methyl-N-(tetrahydrofuran-3-yl)benzamide] showed an IC50 of 506 nM.

The molecule `CC(c1ccc(-c2nc(C3CCOCC3)oc2Sc2ccc(Cl)cc2)cc1)N1CCOCC1` (stereo not shown) [Example B5.17, 4-[1-(4-{5-[(4-chlorophenyl)sulfanyl]-2-(tetrahydro-2H-pyran-4-yl)-1,3-oxazol-4-yl}phenyl)ethyl]morpholine] displayed an IC50 of 1530 nM.

Take `CCNC(=O)[C@H]1CC[C@H](c2nc(-c3ccc(C(C)(C)O)nc3)c(Sc3ccc(Cl)cc3)o2)CC1` [Example B5.39, trans-4-{5-[(4-chlorophenyl)sulfanyl]-4-[6-(2-hydroxypropan-2-yl)pyridin-3-yl]-1,3-oxazol-2-yl}-N-ethylcyclohexanecarboxamide]: half-maximal inhibition (IC50) was put at 26.2 nM. This IC50 is about 58-fold lower than that of the molecule before.

Molecule `O=C(c1ccc(-c2nc(C3CCOCC3)oc2Sc2ccc(Cl)cc2)cc1)N1CC2CC1CO2` (stereo not shown) [Example B5.18, (4-{5-[(4-chlorophenyl)sulfanyl]-2-(tetrahydro-2H-pyran-4-yl)-1,3-oxazol-4-yl}phenyl)(2-oxa-5-azabicyclo[2.2.1]hept-5-yl)methanone] registered an IC50 of 375 nM.

Turning to `COCCOC(=O)N1CCC(c2nc(C3CCOCC3)oc2Sc2ccc(Cl)cn2)CC1` [Example A7.38], the IC50 is at least 10000 nM.

As to `O=C(c1ccc(-c2nc(C3CCOCC3)oc2Sc2ccc(Cl)cc2)cc1)N1CCSC1` [Example B5.31, (4-{5-{(4-chlorophenyl)sulfanyl]-2-(tetrahydro-2H-pyran-4-yl)-1,3-oxazol-4-yl}phenyl)(1,3-thiazolidin-3-yl)methanone], it took 1340 nM to reach half-maximal inhibition (IC50).

In turn, `O=S1(=O)CCN(c2ccc(-c3nc(C4CCOCC4)oc3Sc3ccc(Cl)cc3)cc2)CC1` [Example B5.22, 4-(4-{5-[(4-chlorophenyl)sulfanyl]-2-(tetrahydro-2H-pyran-4-yl)-1,3-oxazol-4-yl}phenyl)thiomorpholine 1,1-dioxide] had an IC50 of 40.3 nM.

For `CC(C)(O)c1ccc(-c2nc(C3CCOCC3)oc2Sc2ncc(Cl)cn2)cn1` [Example A7.3, 2-(5-{5-[(5-chloropyrimidin-2-yl)sulfanyl]-2-(tetrahydro-2H-pyran-4-yl)-1,3-oxazol-4-yl}pyridin-2-yl)propan-2-ol], the IC50 stood at 852 nM.

`O=C(c1ccc(-c2nc(C3CCOCC3)oc2Sc2ccc(Cl)cc2)cn1)N1CCOCC1` [Example B5.24, (5-{5-[(4-chlorophenyl)sulfanyl]-2-(tetrahydro-2H-pyran-4-yl)-1,3-oxazol-4-yl}pyridin-2-yl)(morpholin-4-yl)methanone] registered an IC50 of at least 10000 nM.

Regarding `CN1CCN(CCOC(=O)N2CCC(c3nc(-c4ccc([S+](C)[O-])cc4)c(Sc4ccc(Cl)cn4)o3)CC2)CC1` (stereo not shown) [Example A7.28, 2-(4-methylpiperazin-1-yl)ethyl 4-{5-[(5-chloropyridin-2-yl)sulfanyl]-4-[4-(methylsulfinyl)phenyl]-1,3-oxazol-2-yl}piperidine-1-carboxylate], the IC50 was at least 10000 nM.

The molecule `CC(C)(O)c1ccc(-c2nc([C@H]3CC[C@H](CO)CC3)oc2Sc2ccc(Cl)cc2)cn1` [Example B5.35, 2-(5-{5-[(4-chlorophenyl)sulfanyl]-2-[trans-4-(hydroxymethyl)cyclohexyl]-1,3-oxazol-4-yl}pyridin-2-yl)propan-2-ol] showed an IC50 of 9.06 nM. In other words, the single-digit nanomolar range.

On to `CC(C)OC(=O)N1CCC(c2nc(C3CCOCC3)oc2Sc2ccc(Cl)cn2)CC1` [Example A7.37, propan-2-yl 4-{5-[(5-chloropyridin-2-yl)sulfanyl]-2-(tetrahydro-2H-pyran-4-yl)-1,3-oxazol-4-yl}piperidine-1-carboxylate], for which the midpoint of inhibition, the IC50, lay at 1920 nM.

`CC(O)(CO)c1ccc(-c2nc(C3CCOCC3)oc2Sc2ccc(Cl)cc2)cn1` (stereo not shown) [Example B5.37, 2-(5-{5-[(4-chlorophenyl)sulfanyl]-2-(tetrahydro-2H-pyran-4-yl)-1,3-oxazol-4-yl}pyridin-2-yl)propane-1,2-diol] registered an IC50 of 308 nM.

The molecule `COC(=O)[C@H]1CC[C@@H](c2nc(-c3ccc(C(C)(C)O)nc3)c(Sc3ccc(Cl)cc3)o2)CC1` [Example B5.34, methyl cis-4-{5-[(4-chlorophenyl)sulfanyl]-4-[6-(2-hydroxypropan-2-yl)pyridin-3-yl]-1,3-oxazol-2-yl}cyclohexanecarboxylate] yielded an IC50 of 14.2 nM.

In the case of `COc1ccc(Sc2oc(C3CCOCC3)nc2-c2ccc(C(C)(C)O)nc2)nc1` [Example A7.4, 2-(5-{5-[(5-methoxypyridin-2-yl)sulfanyl]-2-(tetrahydro-2H-pyran-4-yl)-1,3-oxazol-4-yl}pyridin-2-yl)propan-2-ol], the IC50 amounted to 454 nM.
